Experimental data published in patent US20250017964A1, “ENGINEERING OR INDUCING PDGF AND/OR PDGFR SIGNALING TO ENHANCE NK CELL THERAPY” (City of Hope, priority 2021, published 2025).

What was measured:
murine NK cells = test: PDGFRβ expression in murine splenic NK cells, flow cytometry; type: cell-based, mouse
Method: (§1) FIGS. 7A-7F. […] Data shown are representative histograms and mean fluorescence intensity (MFI) of PDGFRα. […] Expression levels of PDGFRβ were examined by flow cytometry (n=6). […] Data shown are the percentages of PDGFRβ^+ NK cells among total NK cells (n=5). […] Data shown are representative histograms with MFI of PDGFRβ expression. (F) Expression levels of PDGFRβ on NK cells from IL-15 transgenic (Tg) mice were determined by flow cytometry. Data shown are representative histograms. Data represent three independent experiments.
Mouse NK cells were isolated from the spleen of C57BL/6J or IL-15 transgenic mice, using the EasySep Mouse NK Cell Isolation Kit ([…] Technologies) as previously described (11).
Cells were stained with the indicated cell-surface markers and/or fixed/permeabilized using a Fixation/Permeabilization Kit (eBioscience). For intracellular staining of IFN-γ and PDGF-D, 5 μg/ml Brefeldin A (BioLegend) was added for 4 h before cell harvest. Intracellular staining of Ki67 was performed by fixing and permeabilizing with the Foxp3/Transcription Factor Staining Kit (eBioscience). […] Data were analyzed using NovoExpress software (Agilent Technologies).

PDGFRB = PDGFRB mRNA levels by qPCR; type: cell-based, human; settings: primary NK cells, IL-15 10 ng/ml
Method: FIGS. 2A-2I. IL-15-induced PDGFRβ expression is mediated by PI3K/AKT signaling. (A-B) Primary NK cells were treated with IL-15 (10 ng/ml) for the indicated times. mRNA levels of PDGFRB at different time points (A) (n=3) or at 1 h (B) (n=10) were examined by qPCR. (C-D) Primary NK cells were pretreated with actinomycin D (ActD, 5., g/ml) (C) or cycloheximide (CHX, 20 μg/ml) (D) for 1 h, washed twice with RPMI-1640, and then treated with IL-15 (10 ng/ml) for 24 h. DMSO was used as a control. Expression levels of PDGFRβ were examined by flow cytometry (n=5). Data shown are representative histograms and percentage of inhibition with the equation: % inhibition=100×[1−(DMSO-inhibitor)/DMSO]. […] (G-I) Binding of p65 to the PDGFRB promoter in IL-15-treated NK cells (G) or resting NK cells (H) as determined by ChIP-qPCR or PCR (I) (n=3). […]
RNA was isolated using an RNeasy Mini Kit (QIAGEN) and reversely transcribed to cDNA with a PrimeScript RT Reagent Kit with gDNA Eraser (Takara Bio) according to the manufacturer's protocol. mRNA expression levels were analyzed using SYBR Green qPCR Master Mix and a QuantStudio 12K Flex Real-Time PCR System (both from Thermo Fisher Scientific). […]

[1] = tested on: PDGFRβ expression in human NK cells; test: Cytokine-induced PDGFRβ expression in purified human NK cells, flow cytometry; type: cell-based; settings: 24 h
Excerpt: Data shown are the percentages of PDGFRβ^+ NK cells among total NK cells (n=5). […] Bar=20 μm. […] Data represent three independent experiments. Data shown are means SD.
as §1
NK cells were cultured in RPMI 1640 with 10% heat-inactivated FBS (Gibco) at 37° C. in a 5% CO2 humidified incubator. For NK cell transduction, PDGFRB cDNA ORF clone (Cat: HG10514-G) was purchased from Sino Biological and cloned into pCDH-CMV-MCS-EF1-copGFP lentivirus vector (System Biosciences). To produce lentivirus, we transfected the lentiviral transfer vector DNA, together with psPAX2 packaging (Addgene) and pMD2.G envelope plasmid DNA (Addgene), into HEK293T cells; using a polyethyenimine (PEI) transfection protocol (Polysciences). Concentrated lentivirus was added to primary NK cells cultured in RPMI 1640 medium supplemented with 10% FCS and 10 jig/mL polybrene with 2,000×g centrifugation for 2 h. Cells were cultured for an additional 48 h. […] The cells were then collected for flow cytometry analysis. For the inhibition assay, NK cells were pretreated with the indicated inhibitors for 1 h, washed twice with RPMI 1640. and then treated with IL-15 for 24 h.
Cells were stained with the indicated cell-surface markers and/or fixed/permeabilized using a Fixation/Permeabilization Kit (eBioscience). For intracellular staining of IFN-γ and PDGF-D, 5 μg/ml Brefeldin A (BioLegend) was added for 4 h before cell harvest. Intracellular staining of Ki67 was performed by fixing and permeabilizing with the Foxp3/Transcription Factor Staining Kit (eBioscience).

IL-15: recombinant human IL-15 (200-15); recombinant murine IL-15 in the mouse NK cell test
PDGFRβ on NK cells from IL-15 transgenic mice (murine NK cells; long-term IL-15 stimulation, IL-15 transgenic mice): could not detect any PDGFRβ | PDGFRβ expression in murine NK cells (murine NK cells; splenic NK cells of C57BL/6 mice, mouse cytokines 10 ng/ml, 24 h): did not express PDGFRβ | mRNA levels of the PDGFRB gene (PDGFRB): increased significantly | PDGFRβ expression ([1]; cytokine 10 ng/ml, IL-15 effect dose- and time-dependent): induced robust expression of PDGFRβ | PDGFRβ expression in CD56^bright NK cells ([1]; sorted CD56^bright NK cells, IL-15 10 ng/ml): not CD56^bright NK cells | PDGFRβ expression in CD56^dim NK cells ([1]; sorted CD56^dim NK cells, IL-15 10 ng/ml): induced PDGFRβ expression only in CD56^dim NK cells
